Laboratory results reported in US10653657B2, “Method for treating hemolytic uremic syndrome” (ENZYCHEM LIFESCIENCES CORPORATION, priority 2015, dated 2020).

Key:
HepG2 cells = test: WST-1 cell viability assay in HepG2 cells; assay type: cell-based; details: PLAG 1 to 100 μg/ml
Protocol: (§1) The incubated HepG2 cell lines are treated with PLAG (1˜100 μg/ml), followed by IL-4 and TNF-α, reacted for 1 hour, incubated for 18 hours at 37° C. and the supernatant is isolated. Quantitation of the amount of C3 in the cellular culture medium (supernatant) from HepG2 cells is performed by ELISA using a commercially available monoclonal antibody (mAb, R&D Systems) and the manufacture's protocol; the results are presented in FIGS. 3A-3C. C3 is expressed spontaneously under in vitro culture conditions using 10% FCS added to HepG2 cells incubated for 12 hr. The cells are treated with different doses of PLAG from 1 to 100 μg/ml (FIG. 3A, FIG. 3B) or 10 and 100 μg/ml of S6I (FIG. 3C), reacted with IL-4 and TNF-α for 1 hr and then incubated for 18 hr at 37° C. Cellular viability is confirmed using the WST-1 assay (FIG. 3A).

[1] = Colony forming units (CFUs) in spleen assay in heavily irradiated mice; assay type: in vivo; details: PLAG 50 mg/kg/d i.p. or p.o.
Protocol: Colony Forming Units (CFUs) in Spleen Assay in Vivo: In order to determine the in vivo effect of PLAG on the recovery of hematopoiesis, a CFUs assay is performed in heavily irradiated mice.

C3 [2] = test: C3 mRNA expression in HepG2 cells by RT-PCR; assay type: cell-based, human
Protocol: A liver cell line, HepG2 (American Type Culture Collection, ATCC, Rockville, Md.), is incubated and maintained at 37° C., 5% CO2 humid atmosphere in DMEM medium. When HepG2 cells, which are known to produce complement in culture, are treated with PLAG, the activity of complement is reduced effectively, as confirmed by RT-PCR of mRNA. In the RT-PCR, 5×10^5 HepG2 cells/ml are distributed into 12 well plates and induced C3 for 12 hours with 10% FCS. Then PLAG is added and further cultured for 2 hours. Cells are harvested and mRNA is isolated and RT-PCR is carried out with specific primers for C3; GAPDH is used as an internal control.

STAT1 = STAT1 transcriptional activity (luciferase) in gene transfected HepG2 cells; assay type: cell-based, human; details: 10 ng IFN-γ, PLAG 0.01-10 μg/ml, 12 hour incubation
Protocol: (§2) By using STAT6 inhibitor (S6I), it is confirmed that the reduction of complement 3 in HepG2 cells (human hepatocyte cell line) is regulated by STAT6. […] It is also confirmed that PLAG has selective efficacy on STAT6 over STAT1. FIG. 1 presents graphs showing STAT1 and STAT6 transcriptional activity in the PLAG treated HepG2 cells. NC refers to the unstimulated control cell. For the STAT1 assay, gene transfected HepG2 (human hepatocyte cell line) is treated with 10 ng of IFN-γ and serially diluted PLAG is added (0.01 μg/ml, 0.1 μg/ml, 1 μg/ml, and 10 μg/ml as shown) to see its effect on gene expression in the stimulated cell. For the STAT6 assay, gene transfected HepG2 cells are treated with 10 ng of IL-4 and again serially diluted PLAG is added (0.01 μg/ml, 0.1 μg/ml, 1 μg/ml, and 10 μg/ml as shown) to see its effect on gene expression in the stimulated cell. The assay is carried out following a 12 hour incubation of treated cells.

complement 3 = test: Complement 3 activation by chemotherapeutic agents in mouse model; assay type: in vivo; details: mice; PLAG 50 mg/kg daily 3 weeks with Gemcitabine, Cyclosphosphamide or Tamoxifen
Protocol: The effect of PLAG for treatment of chemotherapy-induced thrombocytopenia (CIT) is evaluated in an animal model. Anti-cancer agents (Gemcitabine 50 mg/kg, Cyclosphosphamide 100 mg/kg, or Tamoxifen 50 mg/kg) are dosed daily for 3 weeks; PLAG is also administered at a dose of 50 mg/kg daily for 3 weeks.
It is believed that the neutropenia and thrombocytopenia of these agents and other chemotherapeutic agents may be due at least in part to a specific complement-mediated toxicity. This is seen in FIG. 5.

STAT6 [3] = biological target: T1, STAT6 (Homo sapiens, UniProt P42226); test: Dephosphorylation of STAT6 (Western blot, anti-phosphorylated STAT6) in IL-4 stimulated cells; assay type: cell-based; details: U937, Jurkat and A549 cells; PLAG 0.01 to 10 μg/ml; 10 ng/ml IL-4; 15 min after stimulation
T1 construct: endogenous in cells; host or cells: U937, A549, Jurkat
T1 sequence (P42226 1-847): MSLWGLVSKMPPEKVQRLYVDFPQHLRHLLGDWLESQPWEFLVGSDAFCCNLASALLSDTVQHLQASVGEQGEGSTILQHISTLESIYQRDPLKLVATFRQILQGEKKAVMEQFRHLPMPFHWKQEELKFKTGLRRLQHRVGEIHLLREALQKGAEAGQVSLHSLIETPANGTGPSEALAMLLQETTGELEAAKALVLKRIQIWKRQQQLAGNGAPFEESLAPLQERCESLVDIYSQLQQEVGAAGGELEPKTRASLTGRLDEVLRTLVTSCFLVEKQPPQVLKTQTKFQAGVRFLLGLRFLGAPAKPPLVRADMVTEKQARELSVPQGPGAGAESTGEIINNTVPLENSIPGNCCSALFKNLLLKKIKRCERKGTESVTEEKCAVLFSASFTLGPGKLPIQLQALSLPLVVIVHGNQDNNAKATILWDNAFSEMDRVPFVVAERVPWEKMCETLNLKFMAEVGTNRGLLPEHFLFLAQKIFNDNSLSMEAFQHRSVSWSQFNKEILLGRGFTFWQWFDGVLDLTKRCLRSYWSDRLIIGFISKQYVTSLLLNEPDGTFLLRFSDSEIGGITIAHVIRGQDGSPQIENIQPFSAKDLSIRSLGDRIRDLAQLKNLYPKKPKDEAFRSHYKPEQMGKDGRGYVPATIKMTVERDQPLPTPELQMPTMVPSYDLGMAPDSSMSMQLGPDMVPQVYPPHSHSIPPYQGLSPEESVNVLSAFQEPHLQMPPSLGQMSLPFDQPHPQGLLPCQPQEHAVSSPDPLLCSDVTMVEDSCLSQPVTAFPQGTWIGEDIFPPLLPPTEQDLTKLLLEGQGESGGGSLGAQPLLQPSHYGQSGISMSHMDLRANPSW
Protocol: Dephosphorylation of STAT6 is examined using anti-phosphorylated STAT6 in U937, A549, and Jurkat cell lysates treated with PLAG at a concentration of from 0.01 to 10 μg/ml. Phosphorylation of STAT6 is induced by treatment with 10 ng/ml of IL-4. Dephosphorylation of STAT1 is examined in the U937 cell lysate treated with PLAG (0.01 to 10 μg/ml). Phosphorylation of STAT1 is induced by 10 ng of IFN-γ treatment. Dephosphorylation of STAT1 and STAT6 is examined at 15 min after stimulation with IFN-γ and IL-4 respectively, in the PLAG pretreated cells. […] The transcriptional activity of STAT6 is decreased by the dephosphorylation of STAT6. […] No effect of PLAG on STAT1 phosphorylation is observed.

STAT6 [4] = test: STAT6 transcriptional activity (luciferase) in gene transfected HepG2 cells; assay type: cell-based, human; details: 10 ng IL-4, PLAG 0.01-10 μg/ml, 12 hour incubation
Protocol: as §2

C3 [5] = test: C3 in culture supernatant of HepG2 cells by ELISA; assay type: cell-based, human; details: PLAG 1 to 100 μg/ml; IL-4 and TNF-α 1 hr, then 18 hr at 37° C.
Protocol: as §1

C3 [6] = test: C3 inhibition in HMC-1 cells, ELISA of expressed protein; assay type: cell-based, human; details: PLAG 1, 10 and 100 μg/mL for 2 hours; activated 72 hours with 10% FBS
Protocol: In a separate experiment, human mast cells (HMC-1, 1×10^5 cells/ml) are treated with PLAG at various concentrations (1, 10 and 100 μg/mL) for 2 hours. The cells are activated for 72 hours with 10% FBS (Fetal bovine serum)-containing IMDM. The decrease of C3 is confirmed by ELISA analysis of the expressed protein.

[7] = system: hematopoietic stem cells and megakaryocytes; details: reported in WO 99/26640; cited from earlier work
C3 [8] = test: C3 expression in HMC-1 cells induced with IL-4 and TNF-α (RT-PCR / blots); assay type: cell-based, human
Protocol: A blood cell line, HMC-1 (human mast cell, American Type Culture Collection, ATCC, Rockville, Md.) is incubated and maintained at 37° C. under 5% CO2 humid conditions. The medium is IMDM (Life Technologies, Karlsruhe, Germany) containing 10% Fetal Calf Serum (FCS, HyClone, Logan, Utah), 2 mM […], 100 μg/ml penicillin, 100 μg/ml streptomycin (Life Technologies). The cultured HMC-1 cells (1×10^6 cells/ml) are pre-treated with 0.1 and 1 μg/mL concentrations of PLAG, followed by treatment with IL-4 (5 ng) and/or TNF-α (10 ng) to induce cellular activities.
The expressed C3 and its mRNA level change are observed by using RT-PCR (Reverse Transcriptase Polymerase Chain Reaction). The RT-PCR is carried out as follows: the total RNA is separated by the standard protocol and cDNA is synthesized using AccuScript High Fidelity 1st Strand cDNA Synthesis Kit (Stratagene). Two-step RT-PCR reaction is conducted using Oligo-dT primer and reverse transcriptase, a pair of primers and Taq polymerase (Takara, Shiga, Japan). […] The product of PCR is separated using 1.5% agarose gel, dyed with ethidium bromide (EtBr), and visualized with Gel Doc 2000 UV trans-illuminator (Bio-Rad Laboratories, Hercules, Calif., USA), and the experimental data is analyzed using Quantity One software (Bio-Rad Laboratories).

Compound: CCCCC/C=C\C/C=C\CCCCCCCC(=O)OC(COC(C)=O)COC(=O)CCCCCCCCCCCCCCC (racemic) [PLAG, 1-palmitoyl-2-linoleoyl-3-acetylglycerol]
- Cellular propagation and death (WST-1 viability) (HepG2 cells): does not affect
- Number of splenic nodules, primitive progenitor cells and megakaryocytes [1]: marked increase
- Inhibition of C3 expression (RT-PCR) in HepG2 (C3 [2]; PLAG 1 μg/ml, 2 hours, C3 induced 12 hours with 10% FCS): somewhat
- Inhibition of C3 expression (RT-PCR) in HepG2 (C3 [2]; PLAG 10 μg/ml, 2 hours, C3 induced 12 hours with 10% FCS): entirely
- STAT1 expression (transcriptional activity, luciferase) (STAT1): no effect
- Complement 3 activation caused by chemotherapeutic agents (complement 3): largely blocked
- IL-4 treatment induced STAT6 phosphorylation (STAT6 [3]): inhibited with increasing PLAG concentrations
- STAT6 expression (transcriptional activity, luciferase) (STAT6 [4]): significant, dose-dependent effect
- Expression of C3 (ELISA, HepG2 supernatant) (C3 [5]): decreased dose-dependently
- Decrease of C3 (ELISA) in HMC-1 cells (C3 [6]): proportional to the concentration of PLAG
- Growth-stimulating activities of hematopoietic stem cells and megakaryocytes [7]: have growth-stimulating activities
- Expression of C3 in HMC-1 cells (C3 [8]; pre-treated with 0.1 and 1 μg/mL PLAG, then IL-4 (5 ng) and TNF-α (10 ng)): suppressed by PLAG on a concentration dependent basis

Compound: NC(=O)c1cnc(NCCc2ccc(O)c(Cl)c2)nc1NCc1ccccc1 [S6I, reference compound]
- Inhibition of C3 expression (RT-PCR) in HepG2 (C3 [2]; S6I 10 and 100 μg/ml, compared with PLAG 1 and 10 μg/ml): comparable
- Expression of C3 in HMC-1 cells (C3 [8]; IL-4 and TNF-α followed by S6I): comparable
